According to PubChem BioAssay AID1963437 (Molecular Pharmacology Branch, DTP, NCI, 2024):

Test system: OVCAR-8 complex spheroid, growth inhibition
Assay: Anticancer human tumor OVCAR-8 cell line growth inhibition [Asc];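 note: spheroids exposed to agents for 7 days before readout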;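 for viability, T/C: percent viability relative to DMSO vehicle wells taken as 100%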
Conditions: for IC50: curve of first compound; for viability, T/C: stronger effect = lower value; active = viability on the fitted dose curve at most 10% of control; inactive = the rest
Method in brief: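 Spheroid model: tumor line + HUVEC + hMSC. Single agents and combinations; top conc. at/near clinical Cmax (10 microM if undetermined), half-log dilutions. DMSO stocks at 800-fold test concentration.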

NC1CCC(NC2CC2c2ccccc2)CC1 (stereo unspecified) + CCN1C(C(=O)NC23CCC(C(=O)O)(CC2)CC3)C(c2cccc(Cl)c2F)C2(C(=O)Nc3cc(Cl)ccc32)C12CCCCC2
> 0.1 µM: IC50 (second compound 0.00949 µM) | IC50 (second compound 0.03 µM) | IC50 (second compound 0.0949 µM) | IC50 (second compound 0.3 µM) | IC50 (second compound 0.949 µM) | IC50 (second compound 3 µM)
inactive: viability, T/C (second compound 0.00949 µM, first compound 0.000316 µM) 81.2% | viability, T/C (second compound 0.00949 µM, first compound 0.001 µM) 113% | viability, T/C (second compound 0.00949 µM, first compound 0.00316 µM) 91.4% | viability, T/C (second compound 0.00949 µM, first compound 0.01 µM) 109% | viability, T/C (second compound 0.00949 µM, first compound 0.0316 µM) 84.8% | viability, T/C (second compound 0.00949 µM, first compound 0.1 µM) 90.7% | viability, T/C (second compound 0.03 µM, first compound 0.000316 µM) 93.7% | viability, T/C (second compound 0.03 µM, first compound 0.001 µM) 90.2% | viability, T/C (second compound 0.03 µM, first compound 0.00316 µM) 96.5% | viability, T/C (second compound 0.03 µM, first compound 0.01 µM) 93.8% | viability, T/C (second compound 0.03 µM, first compound 0.0316 µM) 98.5% | viability, T/C (second compound 0.03 µM, first compound 0.1 µM) 101% | viability, T/C (second compound 0.0949 µM, first compound 0.000316 µM) 95.4% | viability, T/C (second compound 0.0949 µM, first compound 0.001 µM) 99.5% | viability, T/C (second compound 0.0949 µM, first compound 0.00316 µM) 90.2% | viability, T/C (second compound 0.0949 µM, first compound 0.01 µM) 96.5% | viability, T/C (second compound 0.0949 µM, first compound 0.0316 µM) 98.5% | viability, T/C (second compound 0.0949 µM, first compound 0.1 µM) 90.3% | viability, T/C (second compound 0.3 µM, first compound 0.000316 µM) 98.9% | viability, T/C (second compound 0.3 µM, first compound 0.001 µM) 108% | viability, T/C (second compound 0.3 µM, first compound 0.00316 µM) 109% | viability, T/C (second compound 0.3 µM, first compound 0.01 µM) 110% | viability, T/C (second compound 0.3 µM, first compound 0.0316 µM) 91.1% | viability, T/C (second compound 0.3 µM, first compound 0.1 µM) 103% | viability, T/C (second compound 0.949 µM, first compound 0.000316 µM) 89.2% | viability, T/C (second compound 0.949 µM, first compound 0.001 µM) 109% | viability, T/C (second compound 0.949 µM, first compound 0.00316 µM) 88% | viability, T/C (second compound 0.949 µM, first compound 0.01 µM) 105% | viability, T/C (second compound 0.949 µM, first compound 0.0316 µM) 106% | viability, T/C (second compound 0.949 µM, first compound 0.1 µM) 97.4% | viability, T/C (second compound 3 µM, first compound 0.000316 µM) 113% | viability, T/C (second compound 3 µM, first compound 0.001 µM) 98.2% | viability, T/C (second compound 3 µM, first compound 0.00316 µM) 107% | viability, T/C (second compound 3 µM, first compound 0.01 µM) 110% | viability, T/C (second compound 3 µM, first compound 0.0316 µM) 119% | viability, T/C (second compound 3 µM, first compound 0.1 µM) 109%

NC(=O)C(=Cn1cnc(-c2cc(C(F)(F)F)cc(C(F)(F)F)c2)n1)c1cncnc1 + CNC(C)C(=O)NC1CN(S(=O)(=O)c2cccc(S(=O)(=O)N3CCC4CCC(C(=O)NC(c5ccccc5)c5ccccc5)N4C(=O)C(NC(=O)C(C)NC)C3)c2)CCC2CCC(C(=O)NC(c3ccccc3)c3ccccc3)N2C1=O
0.261 µM: IC50 (second compound 0.00316 µM)
0.0679 µM: IC50 (second compound 1 µM)
0.0732 µM: IC50 (second compound 0.316 µM)
active: viability, T/C (second compound 0.316 µM, first compound 0.3 µM) 7.46% | viability, T/C (second compound 1 µM, first compound 0.3 µM) 4.16%
> 0.3 µM: IC50 (second compound 0.01 µM) | IC50 (second compound 0.0316 µM)
inactive: viability, T/C (second compound 0.00316 µM, first compound 0.000949 µM) 140% | viability, T/C (second compound 0.00316 µM, first compound 0.003 µM) 111% | viability, T/C (second compound 0.00316 µM, first compound 0.00949 µM) 110% | viability, T/C (second compound 0.00316 µM, first compound 0.03 µM) 153% | viability, T/C (second compound 0.00316 µM, first compound 0.0949 µM) 95.6% | viability, T/C (second compound 0.00316 µM, first compound 0.3 µM) 43.8% | viability, T/C (second compound 0.01 µM, first compound 0.000949 µM) 123% | viability, T/C (second compound 0.01 µM, first compound 0.003 µM) 129% | viability, T/C (second compound 0.01 µM, first compound 0.00949 µM) 110% | viability, T/C (second compound 0.01 µM, first compound 0.03 µM) 123% | viability, T/C (second compound 0.01 µM, first compound 0.0949 µM) 91.2% | viability, T/C (second compound 0.01 µM, first compound 0.3 µM) 54% | viability, T/C (second compound 0.0316 µM, first compound 0.000949 µM) 117% | viability, T/C (second compound 0.0316 µM, first compound 0.003 µM) 114% | viability, T/C (second compound 0.0316 µM, first compound 0.00949 µM) 112% | viability, T/C (second compound 0.0316 µM, first compound 0.03 µM) 129% | viability, T/C (second compound 0.0316 µM, first compound 0.0949 µM) 74.5% | viability, T/C (second compound 0.0316 µM, first compound 0.3 µM) 48.4% | viability, T/C (second compound 0.1 µM, first compound 0.000949 µM) 122% | viability, T/C (second compound 0.1 µM, first compound 0.003 µM) 91.6% | viability, T/C (second compound 0.1 µM, first compound 0.00949 µM) 121% | viability, T/C (second compound 0.1 µM, first compound 0.03 µM) 138% | viability, T/C (second compound 0.1 µM, first compound 0.0949 µM) 55.3% | viability, T/C (second compound 0.1 µM, first compound 0.3 µM) 29.5% | viability, T/C (second compound 0.316 µM, first compound 0.000949 µM) 109% | viability, T/C (second compound 0.316 µM, first compound 0.003 µM) 115% | viability, T/C (second compound 0.316 µM, first compound 0.00949 µM) 113% | viability, T/C (second compound 0.316 µM, first compound 0.03 µM) 122% | viability, T/C (second compound 0.316 µM, first compound 0.0949 µM) 31.3% | viability, T/C (second compound 1 µM, first compound 0.000949 µM) 97% | viability, T/C (second compound 1 µM, first compound 0.003 µM) 103% | viability, T/C (second compound 1 µM, first compound 0.00949 µM) 109% | viability, T/C (second compound 1 µM, first compound 0.03 µM) 127% | viability, T/C (second compound 1 µM, first compound 0.0949 µM) 25.8%
0.12 µM: IC50 (second compound 0.1 µM)

C=CC(=O)N1CCN(c2nc(=O)n(-c3c(C)ccnc3C(C)C)c3nc(-c4c(O)cccc4F)c(F)cc23)C(C)C1 (stereo unspecified) + Cc1c(S(C)(=O)=O)c(-c2cc(F)cc(N3CCN(c4ccc(NS(=O)(=O)c5ccc(NC(CCN6CCC(C(=O)OCCCP(=O)(O)O)CC6)CSc6ccccc6)c(S(=O)(=O)C(F)(F)F)c5)cc4)CC3)c2)c(-c2ccc(Cl)cc2)n1C(C)C
inactive: viability, T/C (second compound 0.0316 µM, first compound 0.0316 µM) 109% | viability, T/C (second compound 0.0316 µM, first compound 0.1 µM) 113% | viability, T/C (second compound 0.0316 µM, first compound 0.316 µM) 93.3% | viability, T/C (second compound 0.0316 µM, first compound 1 µM) 95% | viability, T/C (second compound 0.0316 µM, first compound 3.16 µM) 106% | viability, T/C (second compound 0.0316 µM, first compound 10 µM) 122% | viability, T/C (second compound 0.1 µM, first compound 0.0316 µM) 101% | viability, T/C (second compound 0.1 µM, first compound 0.1 µM) 96.2% | viability, T/C (second compound 0.1 µM, first compound 0.316 µM) 94.5% | viability, T/C (second compound 0.1 µM, first compound 1 µM) 104% | viability, T/C (second compound 0.1 µM, first compound 3.16 µM) 93.3% | viability, T/C (second compound 0.1 µM, first compound 10 µM) 118% | viability, T/C (second compound 0.316 µM, first compound 0.0316 µM) 97.5% | viability, T/C (second compound 0.316 µM, first compound 0.1 µM) 92.3% | viability, T/C (second compound 0.316 µM, first compound 0.316 µM) 106% | viability, T/C (second compound 0.316 µM, first compound 1 µM) 93.6% | viability, T/C (second compound 0.316 µM, first compound 3.16 µM) 99% | viability, T/C (second compound 0.316 µM, first compound 10 µM) 123% | viability, T/C (second compound 1 µM, first compound 0.0316 µM) 104% | viability, T/C (second compound 1 µM, first compound 0.1 µM) 112% | viability, T/C (second compound 1 µM, first compound 0.316 µM) 114% | viability, T/C (second compound 1 µM, first compound 1 µM) 92.9% | viability, T/C (second compound 1 µM, first compound 3.16 µM) 92.8% | viability, T/C (second compound 1 µM, first compound 10 µM) 109% | viability, T/C (second compound 3.16 µM, first compound 0.0316 µM) 102% | viability, T/C (second compound 3.16 µM, first compound 0.1 µM) 98.3% | viability, T/C (second compound 3.16 µM, first compound 0.316 µM) 89.7% | viability, T/C (second compound 3.16 µM, first compound 1 µM) 104% | viability, T/C (second compound 3.16 µM, first compound 3.16 µM) 93.7% | viability, T/C (second compound 3.16 µM, first compound 10 µM) 105% | viability, T/C (second compound 10 µM, first compound 0.0316 µM) 101% | viability, T/C (second compound 10 µM, first compound 0.1 µM) 91.5% | viability, T/C (second compound 10 µM, first compound 0.316 µM) 81.9% | viability, T/C (second compound 10 µM, first compound 1 µM) 91.6% | viability, T/C (second compound 10 µM, first compound 3.16 µM) 99.5% | viability, T/C (second compound 10 µM, first compound 10 µM) 101%
> 10 µM: IC50 (second compound 0.0316 µM) | IC50 (second compound 0.1 µM) | IC50 (second compound 0.316 µM) | IC50 (second compound 1 µM) | IC50 (second compound 3.16 µM) | IC50 (second compound 10 µM)
